Broadly, the TGI is the concentration at which net growth stops. Low readings indicate greater sensitivity of the cells, high ones lower sensitivity of the cells.

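1) Cells in 96-well plates. 2) Compound, 48 h, 5 concentrations. 3) Linear interpolation between surrounding doses. 4) Unreached endpoint = highest concentration. The concentration for full growth arrest is given as TGI.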

The source of these data is PubChem BioAssay (NCI).

The test concerns SN12K1 renal. Kind of test: DTP human tumour cell line panel, 48 h.

Compound `CN(C)CC1CCCC(CN(C)C)C1=O` (stereo unspecified) showed a total growth inhibition concentration (TGI) of 30.4 µM.
